Data reported in ChEMBL document CHEMBL3779842, “Isopimarane diterpenoids from Kaempferia pulchra rhizomes collected in Myanmar and their Vpr inhibitory activity” (Bioorg Med Chem Lett, 2016).
Active and inactive are the calls of the source. The rule behind the calls is not given here.

Columns and labels:
Assay type in all cases: cell-based
Conditions in all cases: Human immunodeficiency virus 1
TREx-HeLa-Vpr [1] = experiment: Inhibition of -c-myc-His6 tagged HIV1 NL4-3 Vpr expressed in human TREx-HeLa-Vpr cells assessed as cell viability at 6.25 uM after 48 hrs in presence of tetracycline by WST8 assay
TREx-HeLa-Vpr [2] = experiment: Inhibition of -c-myc-His6 tagged HIV1 NL4-3 Vpr expressed in human TREx-HeLa-Vpr cells assessed as cell viability at 1.56 uM after 48 hrs in presence of tetracycline by WST8 assay
TREx-HeLa-Vpr [3] = experiment: Inhibition of -c-myc-His6 tagged HIV1 NL4-3 Vpr expressed in human TREx-HeLa-Vpr cells assessed as cell viability at 3.12 uM after 48 hrs in presence of tetracycline by WST8 assay
TREx-HeLa-Vpr [4] = experiment: Inhibition of -c-myc-His6 tagged HIV1 NL4-3 Vpr expressed in human TREx-HeLa-Vpr cells assessed as cell viability at 5 uM after 48 hrs in presence of tetracycline by WST8 assay

SMILES | inhibition (TREx-HeLa-Vpr [1]) | inhibition (TREx-HeLa-Vpr [2]) | inhibition (TREx-HeLa-Vpr [3]) | Activity (TREx-HeLa-Vpr [4]) | Cell viability (TREx-HeLa-Vpr [1]) | Activity (TREx-HeLa-Vpr [2]) | Activity (TREx-HeLa-Vpr [3])
C=C[C@]1(C)C=C2[C@H](O)C[C@H]3C(C)(C)CCC[C@]3(C)[C@H]2CC1 | inactive | inactive | inactive |  |  |  | 
C=C[C@]1(C)C=C2C[C@@H](O)[C@H]3C(C)(C)CCC[C@]3(C)[C@@]2(OC)CC1 | inactive | inactive | inactive |  |  |  | 
COc1c(C=O)c(O)cc2c1C(=O)c1ccccc1C2=O |  |  |  | 137% |  |  | 
C=C[C@]1(C)C=C2C(=O)C[C@H]3C(C)(C)CCC[C@]3(C)[C@@]2(O)CC1 | inactive | inactive | inactive |  |  |  | 
C=C[C@]1(C)C=C2C[C@@H](O)[C@H]3C(C)(C)CC[C@H](OC(C)=O)[C@]3(C)[C@H]2CC1 |  |  |  |  | 105% | 130% | 116%
C=C[C@@]1(C)CCC2=C(C(=O)C[C@H]3C(C)(C)CCC[C@]23C)[C@H]1O | inactive | inactive | inactive |  |  |  | 
C=C[C@@]1(C)CCC2=C(C[C@@H](O)[C@H]3C(C)(C)CC[C@H](O)[C@]23C)[C@@H]1OC | inactive | inactive | inactive |  |  |  | 
C=C[C@@]1(C)CCC2=C(CC[C@H]3C(C)(C)CCC[C@]23C)[C@H]1O |  |  |  |  | 104% | 116% | 106%
C=C[C@@]1(C)C=C2CC[C@@H]3C(C)(C)C[C@@H](O)C[C@@]3(C)[C@@H]2CC1 | inactive | inactive | inactive |  |  |  | 
C=C[C@]1(C)C=C2C[C@@H](O)[C@H]3C(C)(C)CC[C@H](O)[C@]3(C)[C@H]2CC1 | inactive | inactive | inactive |  |  |  | 
C=C[C@]1(C)C=C2[C@H](OC(C)=O)[C@@H](O)[C@H]3C(C)(C)CCC[C@]3(C)[C@H]2CC1 |  |  |  |  | 96% | 127% | 114%
C=C[C@]1(C)C=C2CC[C@H]3C(C)(C)[C@H](O)C[C@H](O)[C@]3(C)[C@H]2CC1 | inactive | inactive | inactive |  |  |  | 
C=C[C@]1(C)C=C2C(=O)C[C@H]3C(C)(C)CC[C@H](O)[C@]3(C)[C@H]2CC1 | inactive | inactive | inactive |  |  |  | 
CCOC(=O)/C=C/c1ccc(OC)cc1 | inactive | inactive | inactive |  |  |  | 
C=C[C@@]1(C)CCC2=C(C[C@@H](O)[C@H]3C(C)(C)CCC[C@]23C)[C@@H]1OC |  |  |  |  | 114% | 126% | 119%
C=C[C@@]1(C)CCC2=C(C[C@@H](O)[C@H]3C(C)(C)CCC[C@]23C)[C@@H]1O |  |  |  |  | 157% | 180% | 170%

SMILES | inhibition (TREx-HeLa-Vpr [1]) | inhibition (TREx-HeLa-Vpr [2]) | inhibition (TREx-HeLa-Vpr [3]) | Activity (TREx-HeLa-Vpr [4]) | Cell viability (TREx-HeLa-Vpr [1]) | Activity (TREx-HeLa-Vpr [2]) | Activity (TREx-HeLa-Vpr [3])
C=C[C@]1(C)C=C2CC[C@H]3C(C)(C)CC[C@H](O)[C@]3(C)[C@H]2[C@H](O)C1 | inactive | inactive | inactive |  |  |  | 
C=C[C@]1(C)C=C2C[C@@H](O)[C@H]3C(C)(C)[C@H](O)C[C@H](O)[C@]3(C)[C@H]2CC1 | inactive | inactive | inactive |  |  |  | 
C=C[C@@]1(C)CCC2=C(C[C@@H](O)[C@H]3C(C)(C)CC[C@H](O)[C@]23C)[C@H]1O | inactive | inactive | inactive |  |  |  | 
C=C[C@]1(C)C=C2CC[C@H]3C(C)(C)CC[C@H](O)[C@]3(C)[C@H]2CC1 | inactive | inactive | inactive |  |  |  | 
C=C[C@]1(C)C=C2CC[C@H]3C(C)(C)C[C@H](O)[C@H](O)[C@]3(C)[C@H]2CC1 | inactive | inactive | inactive |  |  |  | 
C=C[C@]1(C)C=C2C[C@@H](OC(C)=O)[C@H]3C(C)(C)CCC[C@]3(C)[C@@]2(O)CC1 | inactive | inactive | inactive |  |  |  | 
C=C[C@]1(C)C=C2CC[C@H]3C(C)(C)C[C@H](O)[C@H](O)[C@]3(C)[C@@]2(O)CC1 | inactive | inactive | inactive |  |  |  | 
C=C[C@]1(C)C=C2CC[C@H]3C(C)(C)C[C@H](O)[C@H](O)[C@]3(C)[C@H]2[C@H](O)C1 | inactive | inactive | inactive |  |  |  | 
C=C[C@]1(C)C=C2C[C@@H](O)[C@H]3C(C)(C)CCC[C@]3(C)[C@H]2CC1 | inactive | inactive | inactive |  |  |  | 
C=C[C@]1(C)C=C2[C@@H](O)[C@@H](O)[C@H]3C(C)(C)CCC[C@]3(C)[C@@]2(O)CC1 |  |  |  |  | 96% | 130% | 111%
C=C[C@]1(C)C=C2[C@H](OC(C)=O)C[C@H]3C(C)(C)CCC[C@]3(C)[C@@]2(O)CC1 | inactive | inactive | inactive |  |  |  | 
C=C[C@@]1(C)CCC2=C(C[C@@H](O)[C@H]3C(C)(C)CCC[C@]23C)C1=O |  |  |  |  | 98% | 114% | 106%
C=C[C@]1(C)C=C2[C@@H](O)C[C@H]3C(C)(C)CCC[C@]3(C)[C@@]2(O)CC1 | inactive | inactive | inactive |  |  |  | 
C=C[C@@]1(C)CCC2=C(C[C@@H](O)[C@H]3C(C)(C)CCC[C@]23C)[C@H]1OC | inactive | inactive | inactive |  |  |  | 
C=C[C@]1(C)C=C2[C@@H](OC(C)=O)[C@@H](O)[C@H]3C(C)(C)CCC[C@]3(C)[C@@]2(O)CC1 | inactive | inactive | inactive |  |  |  | 
C=C[C@@]1(C)CCC2=C(C[C@@H](O)[C@H]3C(C)(C)CCC[C@]23C)[C@H]1O | inactive | inactive | inactive |  |  |  | 
